Measurements taken from PMC4992173, “Divergent synthesis and identification of the cellular targets of deoxyelephantopins” (Nature Communications, 2016).

Target: T1, Glyoxylate reductase/hydroxypyruvate reductase (GRHPR) (Homo sapiens, UniProt Q9UBQ7)
T1 construct: endogenous in cells; host or cells: MCF7
Assay: SILAC competitive profiling with probe 24c in MCF7 lysates: GRHPR
Format: binding
Conditions: protein GRHPR, 1 h, then 10 µM 24c
Description: In our efforts to determine the direct molecular targets of deoxyelephantopin we first performed a gel-based competitive in situ proteomic profiling assay[41] […] While the greater conformational flexibility of probe 24c could potentially lead to more promiscuous target engagement relatively to deoxyelephantopin, it was favoured based on the fact that an alkyne moiety appended to the rigid scaffold of deoxyelephantopin may hinder some of its interactions. MCF7 cells were pretreated with various concentrations of deoxyelephantopin for 4 h, harvested, lysed and the lysates were treated with the fluorogenic probe 24c-Cy3 (10 μM; Supplementary Fig. 10). […] Furthermore, cells were pretreated with 20 μM concentration of deoxyelephantopin or 24c and the proteomic profiles were compared (Fig. 6b, Supplementary Fig. 11). Multiple bands were detected that were equally competed by both DEP and 24c, thus again confirming that 24c can be used as an acceptable clickable analogue of deoxyelephantopin in pulldown assays. Having established the optimal labelling conditions by SDS–PAGE, we next carried out a mass spectrometry-based competitive profiling assay[42] coupled with the method of stable isotope labelling of amino acids in culture (SILAC)[43]. […]
visualization were performed as described above. Images were quantified with ImageJ and kinetics values were calculated using GraphPad Prism (V6.03). […]

T1 sequence (Q9UBQ7 whole entry): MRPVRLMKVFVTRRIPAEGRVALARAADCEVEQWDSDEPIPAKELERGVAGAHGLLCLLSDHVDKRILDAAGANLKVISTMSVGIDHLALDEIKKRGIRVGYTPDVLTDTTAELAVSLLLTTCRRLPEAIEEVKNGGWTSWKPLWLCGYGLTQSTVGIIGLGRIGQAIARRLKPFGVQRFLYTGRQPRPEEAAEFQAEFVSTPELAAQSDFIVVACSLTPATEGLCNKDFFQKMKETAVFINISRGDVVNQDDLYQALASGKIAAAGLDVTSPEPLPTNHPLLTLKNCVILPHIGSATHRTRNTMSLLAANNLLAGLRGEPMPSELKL

With `C=C(C)C(=O)O[C@H]1CC2=C[C@@H](C/C(C)=C/[C@H]3OC(=O)C(=C)[C@H]13)OC2=O` [deoxyelephantopin] the “SILAC ratio 20 µM Deoxyelephantopin/DMSO with 24c” value was 0.23.
